Where only a bound is given, the exact number is not on record here.

The text below walks through data of patent US20190375708A1 (VenatoRx Pharmaceuticals, Inc., priority 2018, published 2019).

Data set [1] can be described thus: In vitro cytotoxicity assay (MTT cell viability) in HepG2 cells. Format: cell-based, human. As to conditions: human. The method, boiled down: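 CC50 values reflect loss of HepG2 viability after a 7-day exposure at 37 °C, 5% CO2. After 3-4 h with MTT, solubilized formazan was quantified at 492 nm relative to vehicle wells.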
The subject of data set [2] is HBV replication in HepAD38 cells. Nature of the data set: Anti-HBV replication assay in HepAD38 cells (QPCR of extracellular HBV DNA). Format: cell-based, HBV (genotype D, serotype ayw). As to conditions: Hepatitis B virus, 168 h, 7 days incubation, extracellular HBV DNA by QPCR, read-out: Anti-HBV EC50. An outline of the steps: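 HepAD38 cells (HepG2 carrying tet-repressible HBV genotype D genome) induced by tetracycline withdrawal, treated 7 days at 37 °C with compound ([…], 1-log10 dilutions). Extracellular HBV DNA quantified by QPCR against a standard curve, normalised to DMSO; EC50 from 4-parameter fit.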

In data set [1], `Cc1cc(NC(=O)c2c(C)c(C(=O)C(=O)N[C@@H]3CCCC[C@H]3O)n(C)c2C)ccc1F` [Example 136, N-(4-fluoro-3-methylphenyl)-5-(2-(((1R,2R)-2-hydroxycyclohexyl)amino)-2-oxoacetyl)-1,2,4-trimethyl-1H-pyrrole-3-carboxamide] returned a CC50 at 7 days greater than 30000 nM. Besides, in data set [2], the 50% effective concentration (EC50) was less than 50 nM.
In the case of `Cc1cc(NC(=O)c2c(C)c(C(=O)C(=O)N[C@H](CO)[C@@H](C)O)n(C)c2C)ccc1F` [Example 143, 5-(2-(((2R,3R)-1,3-dihydroxybutan-2-yl)amino)-2-oxoacetyl)-N-(4-fluoro-3-methylphenyl)-1,2,4-trimethyl-1H-pyrrole-3-carboxamide], in data set [1], the CC50 at 7 days was greater than 30000 nM. In data set [2], the EC50 was less than 50 nM.
The like results for `Cc1nnc(C2(NC(=O)C(=O)c3c(C)c(C(=O)Nc4ccc(F)c(C)c4)c(C)n3C)CC2)o1` [Example 182, N-(4-fluoro-3-methylphenyl)-1,2,4-trimethyl-5-(2-((1-(5-methyl-1,3,4-oxadiazol-2-yl)cyclopropyl)amino)-2-oxoacetyl)-1H-pyrrole-3-carboxamide] were, in that order, greater than 30000 nM and less than 50 nM.
In the case of `CC(C)(O)CNC(=O)C(=O)c1c(Cl)c(C(=O)Nc2ccc(F)c(Cl)c2)c2n1CCCC2` [Example 532, 2-chloro-N-(3-chloro-4-fluorophenyl)-3-(2-((2-hydroxy-2-methylpropyl)amino)-2-oxoacetyl)-5,6,7,8-tetrahydroindolizine-1-carboxamide], the CC50 at 7 days in data set [1] is 500 to 4990 nM. Moreover, the EC50 in data set [2] lay in the range of 500 to 1000 nM.
For the molecule `Cc1cc(NC(=O)c2cc(C(=O)C(=O)NC3(CO)CC3)n3c2CCCC3)ccc1F` [Example 420, N-(4-fluoro-3-methylphenyl)-3-(2-((1-(hydroxymethyl)cyclopropyl)amino)-2-oxoacetyl)-5,6,7,8-tetrahydroindolizine-1-carboxamide], the CC50 at 7 days in data set [1] was greater than 30000 nM. Further, in data set [2], the concentration for a half-maximal effect (EC50) is 50 to 499 nM.
In turn, `Cc1c(C(=O)Nc2ccnc(F)c2)c(C)n(C)c1C(=O)C(=O)NC12CC3CC(CC1C3)C2` [Example 90, N-(2-fluoropyridin-4-yl)-5-(2-(((2R,3as,5S,6as)-hexahydro-2,5-methanopentalen-3a(1H)-yl)amino)-2-oxoacetyl)-1,2,4-trimethyl-1H-pyrrole-3-carboxamide] had a half-maximal cytotoxic concentration (CC50) at 7 days in data set [1] of 5000 to 30000 nM. For the same molecule, in data set [2], the EC50 was less than 50 nM.
Regarding `Cc1cc(NC(=O)c2c(Cl)c(C(=O)C(=O)NCC(C)(C)O)n3c2CCCC3)ccc1F` [Example 497, 2-chloro-N-(4-fluoro-3-methylphenyl)-3-(2-((2-hydroxy-2-methylpropyl)amino)-2-oxoacetyl)-5,6,7,8-tetrahydroindoliine-1-carboxamide], the cytotoxic concentration (CC50) at 7 days in data set [1] lay in the range of 500 to 4990 nM. Also, the half-maximal effective concentration (EC50) in data set [2] lay in the range of 50 to 499 nM.
As to `CC(=O)N1CCC(NC(=O)C(=O)c2c(C)c(C(=O)Nc3ccc(F)c(C)c3)c(C)n2C)CC1` [Example 354, 5-(2-((1-acetylpiperidin-4-yl)amino)-2-oxoacetyl)-N-(4-fluoro-3-methylphenyl)-1,2,4-trimethyl-1H-pyrrole-3-carboxamide], the half-maximal cytotoxic concentration (CC50) at 7 days in data set [1] is greater than 30000 nM. The half-maximal effective concentration (EC50) in data set [2] is less than 50 nM.
The like results for `Cc1cc(NC(=O)c2c(C)c(C(=O)C(=O)NC34CC5CC(CC(O)(C5)C3)C4)n(CCO)c2C)ccc1F` [Example 73, N-(4-fluoro-3-methylphenyl)-5-(2-(((1r,3s,5R,7S)-3-hydroxyadamantan-1-yl)amino)-2-oxoacetyl)-1-(2-hydroxyethyl)-2,4-dimethyl-1H-pyrrole-3-carboxamide] were, in that order, greater than 30000 nM and greater than 1000 nM.
The molecule `Cc1c(C(=O)Nc2ccnc(F)c2)c(C)n(C)c1C(=O)C(=O)N[C@@H](C)C(F)(F)F` [Example 274, (S)-N-(2-fluoropyridin-4-yl)-1,2,4-trimethyl-5-(2-oxo-2-((1,1,1-trifluoropropan-2-yl)amino)acetyl)-1H-pyrrole-3-carboxamide] registered a CC50 at 7 days in data set [1] greater than 30000 nM. Further, the concentration for a half-maximal effect (EC50) in data set [2] is less than 50 nM.
For `CC(C)(O)CNC(=O)C(=O)c1c(Cl)c(C(=O)Nc2ccc(F)c(F)c2)c2n1CCCC2` [Example 534, 2-chloro-N-(3,4-difluorophenyl)-3-(2-((2-hydroxy-2-methylpropyl)amino)-2-oxoacetyl)-5,6,7,8-tetrahydroindolizine--1 carboxamide], the CC50 at 7 days in data set [1] fell in the range of 5000 to 30000 nM. Also, the EC50 in data set [2] was 50 to 499 nM.
Turning to `Cc1noc(C(C)NC(=O)C(=O)c2c(C)c(C(=O)Nc3ccc(F)c(C)c3)c(C)n2C)n1` (stereo not drawn) [Example 82, N-(4-fluoro-3-methylphenyl)-1,2,4-trimethyl-5-(2-((1-(3-methyl-1,2,4-oxadiazol-5-yl)ethyl)amino)-2-oxoacetyl)-1H-pyrrole-3-carboxamide], the half-maximal cytotoxic concentration (CC50) at 7 days in data set [1] is greater than 30000 nM. In addition, in data set [2], the 50% effective concentration (EC50) was less than 50 nM.
Turning to `Cc1cc(NC(=O)c2c(C)c(C(=O)C(=O)NC3CCN(c4cccnc4)CC3)n(C)c2C)ccc1F` [Example 663, N-(4-fluoro-3-methylphenyl)-1,2,4-trimethyl-5-(2-oxo-2-((1-(pyridin-3-yl)piperidin-4-yl)amino)acetyl)-1H-pyrrole-3-carboxamide], the CC50 at 7 days in data set [1] was greater than 30000 nM. Moreover, the concentration for a half-maximal effect (EC50) in data set [2] was less than 50 nM.
`Cc1c(C(=O)Nc2ccc(F)nc2)c(C)n(C)c1C(=O)C(=O)NC1CCc2nc(N)sc2C1` (stereo not drawn) [Example 77, 5-(2-((2-amino-4,5,6,7-tetrahydrobenzo[d]thiazol-6-yl)amino)-2-oxoacetyl)-N-(6-fluoropyridin-3-yl)-1,2,4-trimethyl-1H-pyrrole-3-carboxamide]: the 50% cytotoxic concentration (CC50) at 7 days in data set [1] is greater than 30000 nM. In addition, the EC50 in data set [2] is 50 to 499 nM.
In data set [1], `Cc1noc([C@H](C)NC(=O)C(=O)c2c(C)c(C(=O)Nc3ccc(F)c(Cl)c3)c3n2CCCC3)n1` [Example 446, (S)-N-(3-chloro-4-fluorophenyl)-2-methyl-3-(2-((1-(3-methyl-1,2,4-oxadiazol-5-yl)ethyl)amino)-2-oxoacetyl)-5,6,7,8-tetrahydroindolizine-1-carboxamide] had a CC50 at 7 days of 5000 to 30000 nM. For the same molecule, the EC50 in data set [2] was in the range of 50 to 499 nM.
The corresponding values for `CCn1c(C)c(C(=O)Nc2ccc(F)c(C)c2)c(C)c1C(=O)C(=O)NC(C)(C)CO` [Example 98, 1-ethyl-N-(4-fluoro-3-methylphenyl)-5-(2-((1-hydroxy-2-methylpropan-2-yl)amino)-2-oxoacetyl)-2,4-dimethyl-1H-pyrrole-3-carboxamide] are greater than 30000 nM and less than 50 nM.
In data set [1], `Cc1cc(NC(=O)c2c(C)c(C(=O)C(=O)NCC(C)(C)O)n3c2CCCC3)ccc1F` [Example 444, N-(4-fluoro-3-methylphenyl)-3-(2-((2-hydroxy-2-methylpropyl)amino)-2-oxoacetyl)-2-methyl-5,6,7,8-tetrahydroindolizine-1-carboxamide] showed a CC50 at 7 days of 5000 to 30000 nM. Further, the EC50 in data set [2] is less than 50 nM.
Molecule `Cc1noc([C@H](C)NC(=O)C(=O)c2c(Cl)c(C(=O)Nc3ccc(F)c(C)c3)c3n2CCCC3)n1` [Example 494, (S)-2-chloro-N-(4-fluoro-3-methylphenyl)-3-(2-((1-(3-methyl-1,2,4-oxadiazol-5-yl)ethyl)amino)-2-oxoacetyl)-5,6,7,8-tetrahydroindolizinee-1-carboxamide] displayed a 50% cytotoxic concentration (CC50) at 7 days in data set [1] of 5000 to 30000 nM. Moreover, in data set [2], the half-maximal effective concentration (EC50) was less than 50 nM.
Consider `Cc1cc(NC(=O)c2c(C)c(C(=O)C(=O)NCC(C)(C)CO)n3c2CCCC3)ccc1F` [Example 443, N-(4-fluoro-3-methylphenyl)-3-(2-((3-hydroxy-2,2-dimethylpropyl)amino)-2-oxoacetyl)-2-methyl-5,6,7,8-tetreahydroindolizine-1-carboxamide], for which, in data set [1], the CC50 at 7 days fell in the range of 5000 to 30000 nM. Further, the concentration for a half-maximal effect (EC50) in data set [2] was less than 50 nM.
In the case of `Cc1cc(NC(=O)c2c(C)c(C(=O)C(=O)NOCC(F)(F)F)n(C)c2C)ccc1F` [Example 157, N-(4-fluoro-3-methylphenyl)-1,2,4-trimethyl-5-(2-oxo-2-((2,2,2-trifluoroethoxy)amino)acetyl)-1H-pyrrole-3-carboxamide], the cytotoxic concentration (CC50) at 7 days in data set [1] is greater than 30000 nM. Further, the concentration giving a half-maximal response (EC50) in data set [2] lay within 50 to 499 nM.
The like results for `Cc1cc(NC(=O)c2c(C)c(C(=O)C(=O)NC34CC5CC(CC(C5)C3)C4)n(C)c2C)ccc1F` [Example 14, 5-(2-(((3s,5s,7s)-adamantan-1-yl)amino)-2-oxoacetyl)-N-(4-fluoro-3-methylphenyl)-1,2,4-trimethyl-1H-pyrrole-3-carboxamide] were, in that order, 5000 to 30000 nM and less than 50 nM.
Consider `Cc1cc(NC(=O)c2c(Cl)c(C(=O)C(=O)NC3(CO)CC(F)(F)C3)n3c2CCC3)cnc1F` [Example 579, 6-chloro-5-(2-((3,3-difluoro-1-(hydroxymethyl)cyclobutyl)amino)-2-oxoacetyl)-N-(6-fluoro-5-methylpyridin-3-yl)-2,3-dihydro-1H-pyrrolizine-7-carboxamide], for which, in data set [1], the half-maximal cytotoxic concentration (CC50) at 7 days was greater than 30000 nM. The EC50 in data set [2] is 500 to 1000 nM.
The like results for `Cc1nc(CCNC(=O)C(=O)c2c(C)c(C(=O)Nc3ccc(F)c(C)c3)c(C)n2C)c(C)s1` [Example 327, 5-(2-((2-(2,5-dimethylthiazol-4-yl)ethyl)amnio)-2-oxoacetyl)-N-(4-fluoro-3-methylphenyl)-1,2,4-trimethyl-1H-pyrrole-3-carboxamide] were, in that order, greater than 30000 nM and less than 50 nM.
The like results for `Cc1c(C(=O)Nc2ccc(F)c(F)c2)c(C)n(C)c1C(=O)C(=O)NC(C)(C)C` [Example 4, 5-(2-(tert-butylamino)-2-oxoacetyl)-N-(3,4-difluorophenyl)-1,2,4-trimethyl-1H-pyrrole-3-carboxamide] were, in that order, greater than 30000 nM and less than 50 nM.

One may read the CC50 as the concentration giving 50% cytotoxicity. A low value points to harm at low concentration. As usually defined, the EC50 is the concentration that produces a half-maximal response.
